Measurements taken from PubChem BioAssay (NCI).
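A five-concentration, 48-hour dose response in 96-well plates underlies each endpoint, interpolated linearly between surrounding concentrations. GI50: concentration for 50% inhibition of growth. Definition used: TGI = concentration required for complete inhibition of growth.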

Columns and labels:
Assay in all cases: growth of human tumour cells (NCI), 48 h
A498 renal = system: A498 renal
A549 NSCLC = system: A549 NSCLC
BT-549 breast = system: BT-549 breast
COLO 205 colon = system: COLO 205 colon
HL-60(TB) leukemia = system: HL-60(TB) leukemia
IGROV1 ovarian = system: IGROV1 ovarian
LOX IMVI melanoma = system: LOX IMVI melanoma
MDA-MB-435 = system: MDA-MB-435
SNB-19 CNS = system: SNB-19 CNS
TK-10 renal = system: TK-10 renal

Compound Cc1[c-]onc1C.Cc1[c-]onc1C.[Ag].[Ag].[NH-]S(=O)(=O)c1ccc(N=Nc2cc(N=Nc3ccc(S([NH-])(=O)=O)cc3)c3c(NC(=O)C(Cl)Cl)cccc3c2OC(=O)C(Cl)Cl)cc1 has a GI50 (A498 renal) of 13 µM, a TGI (A498 renal) of 44.6 µM and a GI50 (A549 NSCLC) of 11 µM. For the same compound, the TGI (A549 NSCLC) was greater than 50 µM, the GI50 (BT-549 breast) was 7.57 µM and the TGI (BT-549 breast) was 14.8 µM. It also gave a GI50 (COLO 205 colon) of 5.15 µM, a TGI (COLO 205 colon) of 30.4 µM and a GI50 (HL-60(TB) leukemia) of 11 µM. It also gave a TGI (HL-60(TB) leukemia) of 26.7 µM, a GI50 (IGROV1 ovarian) of 6.53 µM and a TGI (IGROV1 ovarian) of 26.4 µM. It also gave a GI50 (LOX IMVI melanoma) of 7.75 µM, a TGI (LOX IMVI melanoma) of 18.3 µM and a GI50 (MDA-MB-435) of 7.87 µM. It also gave a TGI (MDA-MB-435) of 16.3 µM, a GI50 (SNB-19 CNS) of 7.38 µM and a TGI (SNB-19 CNS) of 16.9 µM. The GI50 (TK-10 renal) was 10 µM and the TGI (TK-10 renal) was 18.2 µM.
